According to the supplement of paper PMC11061612:

How the values were obtained:
[1] = tested on: KE-37 (T-Lymphoblastic Leukemia); experiment: Bliss excess, mean over the matrix (fraction); higher = more synergy
Summary of the method: (§1)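 Cell lines grown in DMEM/F12 or RPMI with 10% FBS were plated in 1536-well plates and held 24 hours at 37°C, 5% CO2 before 72 hours of exposure to two-drug dose matrices, with DMSO typically at 0.2%. CellTiter-Glo 2.0 luminescence gave viability, which was converted to inhibition. Vehicle wells were set to 0 and blank wells to 1. Combination Emax is the second-highest inhibition in the matrix, and Bliss excess is the observed combination effect minus the expected EA + EB − EA·EB, where EA and EB are the single-agent effects.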

[2] = tested on: CAL-120 (Breast Carcinoma); experiment: as above
Summary of the method: as §1

[3] = tested on: HSC-39 (Gastric Carcinoma); experiment: as above
Summary of the method: as §1

[4] = tested on: CAL-62 (Thyroid Gland Carcinoma); experiment: as above
Summary of the method: as §1

[5] = tested on: RERF-LC-Sq1 (Squamous Cell Lung Carcinoma); experiment: as above
Summary of the method: as §1

[6] = tested on: RCM-1 (Colorectal Carcinoma); experiment: as above
Summary of the method: as §1

[7] = tested on: MKN45 (Gastric Carcinoma); experiment: as above
Summary of the method: as §1

[8] = tested on: HEC-1 (Endometrial Carcinoma); experiment: as above
Summary of the method: as §1

[9] = tested on: RKN (Other Solid Carcinomas); experiment: as above
Summary of the method: as §1

[10] = tested on: A2058 (Melanoma); experiment: as above
Summary of the method: as §1

[11] = tested on: LXF-289 (Lung Adenocarcinoma); experiment: as above
Summary of the method: as §1

[12] = tested on: SF539 (Glioblastoma); experiment: as above
Summary of the method: as §1

[13] = tested on: NCI-H23 (Lung Adenocarcinoma); experiment: as above
Summary of the method: as §1

[14] = tested on: GP5d (Colorectal Carcinoma); experiment: as above
Summary of the method: as §1

[15] = tested on: IST-MES1 (Mesothelioma); experiment: as above
Summary of the method: as §1

[16] = tested on: WM793B (Melanoma); experiment: as above
Summary of the method: as §1

[17] = tested on: HCT-15 (Colorectal Carcinoma); experiment: as above
Summary of the method: as §1

[18] = tested on: CAL-120 (Breast Carcinoma); experiment: combination Emax (second highest fraction inhibited in the dose matrix, 72 h); higher = more inhibition; extreme values may be limits of the assay
Summary of the method: as §1

[19] = tested on: LB996-RCC (Kidney Carcinoma); experiment: as above
Summary of the method: as §1

[20] = tested on: RERF-LC-Sq1 (Squamous Cell Lung Carcinoma); experiment: as above
Summary of the method: as §1
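For Bliss excess, mean over the matrix in this document: after 72 h of two-drug dosing.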

Row | SMILES | Bliss excess [1] | Bliss excess [2] | Bliss excess [3] | Bliss excess [4] | Bliss excess [5] | Bliss excess [6] | Bliss excess [7] | Bliss excess [8] | Bliss excess [9] | Bliss excess [10] | Bliss excess [11] | Bliss excess [12] | Bliss excess [13] | Bliss excess [14] | Bliss excess [15] | Bliss excess [16] | Bliss excess [17] | combination Emax [18] | combination Emax [19] | combination Emax [20]
1 | COc1nnc2ccc(N3CCC(c4ccc(OCCN5CCN(C)C(=O)[C@H]5C)cc4)CC3)nn12 [AZD5153] + CCN(CCO)CCCOc1ccc2c(Nc3cc(CC(=O)Nc4cccc(F)c4)[nH]n3)ncnc2c1 [AZD2811] (first compound max 1 µM, 7x7, partner max 1 µM) | -0.0085 | 0.0045 | -0.006 | -0.0497 | 0.0063 | -0.03 | -0.01 | -0.0176 | -0.0286 | 0.0568 | 0.0227 | -0.0184 | -0.0412 | -0.082 | -0.0132 | -0.0567 | -0.0143 | 0.441 | 0.534 | 0.555
2 | COc1nnc2ccc(N3CCC(c4ccc(OCCN5CCN(C)C(=O)[C@H]5C)cc4)CC3)nn12 [AZD5153] + C[C@@H]1COCCN1C2=NC(=NC(=C2)C3(CC3)[S@](=N)(=O)C)C4=C5C=CNC5=NC=C4 [AZD6738] (first compound max 1 µM, 7x7, partner max 10 µM) | 0.0286 | 0.0309 | -0.0055 | -0.0082 | 0.0033 | -0.115 | -0.0649 | 0.0625 | -0.0757 | 0.0671 | 0.0681 | 0.0418 | -0.0105 | -0.0421 | -0.0183 | -0.0158 | 0.0267 | 0.589 | 0.731 | 0.801
3 | COc1nnc2ccc(N3CCC(c4ccc(OCCN5CCN(C)C(=O)[C@H]5C)cc4)CC3)nn12 [AZD5153] + Cc1c2c(nn1C)CSCc1cc(n(C)n1)CSc1cc(c3ccccc3c1)OCCCc1c(C(=O)O)n(C)c3c-2c(Cl)ccc13 [AZD5991] (first compound max 1 µM, 7x7, partner max 1 µM) | 0.116 | 0.0048 | 0.0135 | -0.057 | -0.0393 | -0.0512 | -0.0635 | 0.0132 | -0.0692 | 0.067 | 0.0019 | -0.0273 | -0.086 | -0.0569 | -0.0031 | -0.0303 | -0.0709 | 0.403 | 0.491 | 0.602
4 | COc1nnc2ccc(N3CCC(c4ccc(OCCN5CCN(C)C(=O)[C@H]5C)cc4)CC3)nn12 [AZD5153] + Cn1cnc2c(F)c(Nc3ccc(Br)cc3Cl)c(C(=O)NOCCO)cc21 [Selumetinib] (first compound max 1 µM, 7x7, partner max 10 µM) | -0.0459 | 0.0386 | -0.0013 | 0.0286 | 0.102 | -0.008 | -0.0237 | -0.0115 | -0.0073 | 0.0358 | -0.0468 | -0.0255 | -0.0027 | -0.0805 | 0.0054 | -0.074 | 0.0243 | 0.479 | 0.482 | 0.79
5 | Cc1c2c(nn1C)CSCc1cc(n(C)n1)CSc1cc(c3ccccc3c1)OCCCc1c(C(=O)O)n(C)c3c-2c(Cl)ccc13 [AZD5991] + C=CCn1c(=O)c2cnc(Nc3ccc(N4CCN(C)CC4)cc3)nc2n1-c1cccc(C(C)(C)O)n1 [AZD1775] (first compound max 1 µM, partner max 1 µM) | 0.0334 | -0.0143 | 0.0058 | -0.0385 | 0.0112 | -0.0271 | -0.0456 | 0.0192 | -0.0446 | 0.0959 | -0.029 | -0.0239 | -0.0174 | -0.0133 | 0.0383 | 0.0054 | -0.0306 | 0.405 | 0.856 | 0.785
6 | Cc1c2c(nn1C)CSCc1cc(n(C)n1)CSc1cc(c3ccccc3c1)OCCCc1c(C(=O)O)n(C)c3c-2c(Cl)ccc13 [AZD5991] + CC1(C)CCC(CN2CCN(c3ccc(C(=O)NS(=O)(=O)c4ccc(NCC5CCOCC5)c([N+](=O)[O-])c4)c(Oc4cnc5[nH]ccc5c4)c3)CC2)=C(c2ccc(Cl)cc2)C1 [Venetoclax] (first compound max 1 µM, 7x7, partner max 1 µM) | 0.0273 | -0.0284 | 0.0266 | -0.0325 | -0.0191 | 0.0136 | -0.0206 | -0.0543 | -0.0337 | 0.0967 | 0.0108 | 0.0187 | -0.0077 | -0.0134 | -0.0239 | -0.0016 | -0.0087 | 0.121 | 0.199 | 0.282
7 | Cc1c2c(nn1C)CSCc1cc(n(C)n1)CSc1cc(c3ccccc3c1)OCCCc1c(C(=O)O)n(C)c3c-2c(Cl)ccc13 [AZD5991] + CCN(CCO)CCCOc1ccc2c(Nc3cc(CC(=O)Nc4cccc(F)c4)[nH]n3)ncnc2c1 [AZD2811] (first compound max 1 µM, 7x7, partner max 1 µM) | 0.0133 | -0.0077 | 0.0233 | 0.0397 | 0.043 | -0.0249 | -0.0123 | 0.0547 | -0.0015 | 0.114 | 0.0912 | 0.0184 | 0.0222 | -0.0319 | -0.002 | 0.0264 | 0.0432 | 0.21 | 0.405 | 0.622
8 | Cc1c2c(nn1C)CSCc1cc(n(C)n1)CSc1cc(c3ccccc3c1)OCCCc1c(C(=O)O)n(C)c3c-2c(Cl)ccc13 [AZD5991] + CN(C)CCCOc1ccc(-c2ccc3ncc4c(c3c2)n(C2CCOCC2)c(=O)n4C)cn1 [AZD0156] (first compound max 1 µM, 7x7, partner max 1 µM) | 0.0257 | -0.036 | -0.0201 | -0.0061 | 0.0372 | -0.0105 | -0.0594 | -0.0025 | 0.0006 | -0.0048 | 0.0472 | -0.0184 | -0.0201 | -0.0201 | 0.0029 | -0.0312 | 0.0369 | 0.171 | 0.265 | 0.364
9 | Cc1c2c(nn1C)CSCc1cc(n(C)n1)CSc1cc(c3ccccc3c1)OCCCc1c(C(=O)O)n(C)c3c-2c(Cl)ccc13 [AZD5991] + Cc1cc2ncnn2cc1Nc1ncc2c(n1)n(C1CCOCC1)c(=O)n2C [AZD7648] (first compound max 1 µM, 7x7, partner max 10 µM) | -0.0059 | -0.0059 | 0.0095 | -0.0187 | -0.0088 | -0.0149 | -0.0528 | -0.0375 | -0.0151 | -0.067 | -0.0889 | 0.0057 | -0.0431 | -0.0338 | -0.0122 | -0.024 | -0.0354 | 0.252 | 0.363 | 0.37
10 | Cc1c2c(nn1C)CSCc1cc(n(C)n1)CSc1cc(c3ccccc3c1)OCCCc1c(C(=O)O)n(C)c3c-2c(Cl)ccc13 [AZD5991] + Cn1cnc2c(F)c(Nc3ccc(Br)cc3Cl)c(C(=O)NOCCO)cc21 [Selumetinib] (first compound max 1 µM, 7x7, partner max 3 µM) | 0.0278 | -0.0105 | 0.0118 | -0.0174 | 0.0048 | 0.0025 | -0.0643 | -0.0318 | -0.0147 | 0.213 | 0.0414 | -0.0344 | 0.0495 | 0.0017 | -0.0466 | -0.0053 | 0.0116 | 0.167 | 0.255 | 0.479
11 | C[C@@H]1COCCN1c1cc(C2([S@](C)(=N)=O)CC2)nc(-c2ccnc3[nH]ccc23)n1 [AZD6738] + O=C(c1cc(Cc2n[nH]c(=O)c3ccccc23)ccc1F)N1CCN(C(=O)C2CC2)CC1 [Olaparib] (first compound max 10 µM, 7x7, partner max 10 µM) | 0.0288 | 0.0364 | 0.025 | 0.0428 | -0.0101 | -0.101 | -0.0683 | -0.0041 | -0.007 | 0.0033 | -0.0371 | -0.0047 | 0.0049 | -0.0092 | 0.0228 | -0.0214 | 0.0151 | 0.386 | 0.675 | 0.75
12 | Cc1cc2ncnn2cc1Nc1ncc2c(n1)n(C1CCOCC1)c(=O)n2C [AZD7648] + C=CCn1c(=O)c2cnc(Nc3ccc(N4CCN(C)CC4)cc3)nc2n1-c1cccc(C(C)(C)O)n1 [AZD1775] (first compound max 10 µM, partner max 1 µM) | -0.0108 | 0.0463 | -0.0357 | 0.0057 | 0.0053 | 0.0248 | -0.0887 | -0.0318 | 0.0089 | 0.0194 | -0.0396 | 0.0049 | -0.0363 | -0.0431 | -0.002 | -0.0395 | -0.055 | 0.498 | 0.762 | 0.672
13 | Cc1cc2ncnn2cc1Nc1ncc2c(n1)n(C1CCOCC1)c(=O)n2C [AZD7648] + CCN(CCO)CCCOc1ccc2c(Nc3cc(CC(=O)Nc4cccc(F)c4)[nH]n3)ncnc2c1 [AZD2811] (first compound max 10 µM, 7x7, partner max 1 µM) | -0.0002 | -0.0528 | -0.0371 | 0.0427 | -0.0048 | -0.032 | -0.0635 | -0.0269 | -0.0148 | 0.01 | 0.0397 | 0.0118 | 0.016 | 0.0648 | 0.0188 | -0.0038 | -0.003 | 0.334 | 0.363 | 0.261
14 | Cc1cc2ncnn2cc1Nc1ncc2c(n1)n(C1CCOCC1)c(=O)n2C [AZD7648] + CN(C)CCCOc1ccc(-c2ccc3ncc4c(c3c2)n(C2CCOCC2)c(=O)n4C)cn1 [AZD0156] (first compound max 10 µM, 7x7, partner max 1 µM) | 0.0492 | -0.0197 | -0.036 | 0.0145 | 0.0114 | -0.0041 | -0.0268 | -0.0239 | -0.0352 | -0.001 | 0.034 | 0.0407 | -0.0031 | -0.0119 | -0.0353 | -0.029 | -0.019 | 0.414 | 0.339 | 0.197
